{
  "source": "patent US5447925A",
  "about": "“Antibiotic compounds” (Imperial Chemical Industries PLC, priority 1991, dated 1995)",
  "format_in_all_cases": "cell-based",
  "key": {"[1]": {"system": "P. aeruginosa PU21 (101028)", "assay": "MIC by agar dilution, P. aeruginosa PU21 (101028)", "conditions": "Pseudomonas aeruginosa, Diagnostic Sensitivity Test agar, inoculum 10^4 CFU/spot", "text": "(§1) The pharmaceutically acceptable carbapenem compounds of the present invention are useful antibacterial agents having a broad spectrum of activity in vitro against standard laboratory microorganisms, both Gram-negative and Gram-positive, which are used to screen for activity against pathogenic bacteria. The antibacterial spectrum and potency of a particular compound may be determined in a standard test system. In particular the carbapenems of the present invention show good stability to beta-lactamases and have particularly high activity in vitro against strains of Pseudomonas aeruginosa and other Gram-negative aerobic bacteria.\n(§2) The following results were obtained for representative compounds on a standard in vitro test system using Diagnostic Sensitivity Test agar medium. The antibacterial activity is described in terms of the minimum inhibitory concentration (M1C) determined by the agar-dilution technique with an inoculum size of 10^4 CFU/spot."}, "[2]": {"system": "Ent. cloacae P99^- (401054)", "assay": "MIC by agar dilution, Ent. cloacae P99^- (401054)", "conditions": "Enterobacter cloacae", "text": "as §1, §2"}, "Serr. marcesens (421003)": {"system": "Serr. marcesens (421003)", "assay": "MIC by agar dilution, Serr. marcesens (421003)", "conditions": "Diagnostic Sensitivity Test agar, inoculum 10^4 CFU/spot", "text": "as §1, §2"}, "Pr. morganii (433001)": {"system": "Pr. morganii (433001)", "assay": "MIC by agar dilution, Pr. morganii (433001)", "conditions": "Morganella morganii, Diagnostic Sensitivity Test agar, inoculum 10^4 CFU/spot", "text": "as §1, §2"}, "E. coli DCO (341098)": {"system": "E. coli DCO (341098)", "assay": "MIC by agar dilution, E. coli DCO (341098)", "conditions": "Escherichia coli, Diagnostic Sensitivity Test agar, inoculum 10^4 CFU/spot", "text": "as §1, §2"}, "St. aureus 147N (601052)": {"system": "St. aureus 147N (601052)", "assay": "MIC by agar dilution, St. aureus 147N (601052)", "conditions": "Staphylococcus aureus, Diagnostic Sensitivity Test agar, inoculum 10^4 CFU/spot", "text": "as §1, §2"}, "S. dublin (369001)": {"system": "S. dublin (369001)", "assay": "MIC by agar dilution, S. dublin (369001)", "conditions": "Salmonella enterica, Diagnostic Sensitivity Test agar, inoculum 10^4 CFU/spot", "text": "as §1, §2"}, "Strep. pyogenes (681018)": {"system": "Strep. pyogenes (681018)", "assay": "MIC by agar dilution, Strep. pyogenes (681018)", "conditions": "Streptococcus pyogenes, Diagnostic Sensitivity Test agar, inoculum 10^4 CFU/spot", "text": "as §1, §2"}, "[3]": {"system": "P. aeruginosa 18S (101024)", "assay": "MIC by agar dilution, P. aeruginosa 18S (101024)", "conditions": "Pseudomonas aeruginosa, Diagnostic Sensitivity Test agar, inoculum 10^4 CFU/spot", "text": "as §1, §2"}, "[4]": {"system": "P. aeruginosa 18S IMIR (101148)", "assay": "MIC by agar dilution, P. aeruginosa 18S IMIR (101148)", "conditions": "Pseudomonas aeruginosa", "text": "as §1, §2"}, "[5]": {"system": "B. fragilis AMP R (542008)", "assay": "MIC by agar dilution, B. fragilis AMP R (542008)", "conditions": "Bacteroides fragilis, Diagnostic Sensitivity Test agar, inoculum 10^4 CFU/spot", "text": "as §1, §2"}},
  "data": [
    {"compound": "C[C@@H](O)[C@H]1C(=O)N2C(C(=O)O)=C(S[C@@H]3CN[C@H](CNC(=O)c4cc(O)c(O)c(C#N)c4)C3)[C@H](C)[C@H]12", "note": "[Example 3, (1R,5R,6S,8R,2'S,4'S)-2-(2-(5-cyano-3,4-dihydroxybenzoylaminomethyl)pyrrolidin-4-ylthio)-6-(1-hydroxyethyl)-1-methyulcarbapenem-3carboxylic acid]", "values": [
      {"measurement": "MIC", "setting": "[1]", "result": 0.25, "unit": "µg/mL"},
      {"measurement": "MIC", "setting": "[2]", "result": 0.03, "unit": "µg/mL"},
      {"measurement": "MIC", "setting": "Serr. marcesens (421003)", "result": 0.25, "unit": "µg/mL"},
      {"measurement": "MIC", "setting": "Pr. morganii (433001)", "result": 0.5, "unit": "µg/mL"},
      {"measurement": "MIC", "setting": "E. coli DCO (341098)", "result": 0.03, "unit": "µg/mL"},
      {"measurement": "MIC", "setting": "St. aureus 147N (601052)", "result": 0.125, "unit": "µg/mL"},
      {"measurement": "MIC", "setting": "S. dublin (369001)", "result": 0.06, "unit": "µg/mL"},
      {"measurement": "MIC", "setting": "Strep. pyogenes (681018)", "result": 0.008, "unit": "µg/mL"},
      {"measurement": "MIC", "setting": "[3]", "result": 0.125, "unit": "µg/mL"},
      {"measurement": "MIC", "setting": "[4]", "result": 0.125, "unit": "µg/mL"},
      {"measurement": "MIC", "setting": "[5]", "result": 4, "unit": "µg/mL"}
    ]}
  ]
}
